Data on 5 compounds can be found in ChEMBL document CHEMBL1150515, “Synthesis and structure-activity relationships of novel THF 1-methylcarbapenems II” (1997).

The structures appear in SMILES notation. Values after ≈ are worked out from the molar mass of the structure shown.

Test [1] deals with Acinetobacter calcoaceticus. Kind of test: Antimicrobial activity against Acinetobacter calcoaceticus (GC 756). The class given is functional.
Test [2] in a line: Antimicrobial activity against Morganella morganii (GC 2213). The format is functional.
Test [3] in a line: Antimicrobial activity against Enterococcus faecalis (GC 842). The format is functional.
The subject of test [4] is Escherichia coli. Kind of test: Antimicrobial activity against Escherichia coli (ATCC 25922). The class given is functional.
Test [5] can be described thus: Antimicrobial activity against Citrobacter freundii (GC 2211). The format is functional.
Test [6] relates to Escherichia coli. Kind of test: Antimicrobial activity against Escherichia coli (GC 2205). The format is functional.
Test [7] is described as follows: Antimicrobial activity against Xanthomonas maltophilia (GC 562). The class given is functional. Particulars: Stenotrophomonas maltophilia.
The target of test [8] is T1, Dipeptidase 1 (Sus scrofa) (UniProt P22412).
T1 sequence (whole entry): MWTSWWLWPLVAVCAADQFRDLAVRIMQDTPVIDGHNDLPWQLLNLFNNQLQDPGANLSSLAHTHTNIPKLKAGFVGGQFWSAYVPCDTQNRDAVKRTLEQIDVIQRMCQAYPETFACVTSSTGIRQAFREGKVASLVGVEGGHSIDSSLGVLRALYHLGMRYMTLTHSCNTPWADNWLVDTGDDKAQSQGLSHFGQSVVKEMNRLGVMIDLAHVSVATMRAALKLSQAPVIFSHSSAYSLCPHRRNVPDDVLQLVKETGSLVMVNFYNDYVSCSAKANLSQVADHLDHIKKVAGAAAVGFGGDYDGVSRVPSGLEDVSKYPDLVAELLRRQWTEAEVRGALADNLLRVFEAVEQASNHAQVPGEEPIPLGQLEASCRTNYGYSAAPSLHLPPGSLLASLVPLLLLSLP
As to the kind of experiment: Relative hydrolysis of compound to that of imipenem was determined by hog renal dehydropeptidase. The format is functional.

The test system of test [9] is Staphylococcus aureus. Kind of test: Antimicrobial activity against Staphylococcus aureus (ATCC 29213). The format is functional.
The nature of test [10]: Antimicrobial activity against Enterobacter cloacae (GC 2209). The format is functional.
The subject of test [11] is Pseudomonas aeruginosa. As to the kind of experiment: Antimicrobial activity against Pseudomonas aeruginosa (GC 1544 OprD). The class given is functional.
In test [12] the test system is Staphylococcus aureus. As to the kind of experiment: Antimicrobial activity against methicillin - resistant Staphylococcus aureus (GC 2220). The format is functional.
Test [13] relates to Pseudomonas aeruginosa. As to the kind of experiment: Antimicrobial activity against Pseudomonas aeruginosa (ATCC 27853). The class given is functional.
In test [14] the test system is Escherichia coli. As to the kind of experiment: Antimicrobial activity against Escherichia coli (GC 1792). The class given is functional.
Test [15] can be described thus: Antimicrobial activity against Enterococcus faecium (GC 1182). The class given is functional.
The test system of test [16] is Staphylococcus aureus. Kind of test: The compound was evaluated for the antimicrobial activity against Staphylococcus aureus (ATCC 29213). The format is functional.
Test [17] concerns the target T1, Dipeptidase 1 (Sus scrofa). Kind of test: Relative hydrolysis to that of imipenem was determined by hog renal dehydropeptidase.
Test [18] concerns Stenotrophomonas maltophilia. Kind of test: The compound was evaluated for the antimicrobial activity against Xanthomonas maltophilia (GC 562). The class given is functional.
The test system of a further test is Enterococcus faecium. Kind of test: The compound was evaluated for the antimicrobial activity against Enterococcus faecium (GC 1182). The format is functional.
Test [19] relates to Staphylococcus aureus. Kind of test: The compound was evaluated for the antimicrobial activity against methicillin - resistant Staphylococcus aureus (GC 2220). The format is functional.
Another test relates to Enterococcus faecalis. Kind of test: The compound was evaluated for the antimicrobial activity against Enterococcus faecalis (GC 842). The class given is functional.

In the case of `C[C@H](N)C(=O)NCC1CC(SC2=C(C(=O)[O-])N3C(=O)[C@H]([C@@H](C)O)[C@H]3[C@H]2C)CO1.[Na+]` (stereo not given in full), the MIC in test [1] is 8 µg/mL; in [2], 1 µg/mL; in test [3], 4 µg/mL; against Escherichia coli [4], at most 0.06 µg/mL; in test [5], 1 µg/mL; against Escherichia coli [6] it was at most 0.06 µg/mL. For the same compound, the MIC was above 128 µg/mL in test [7]; 0.12 µg/mL against Staphylococcus aureus [9]; 0.25 µg/mL in test [10]; 64 µg/mL against Pseudomonas aeruginosa [11]; 8 µg/mL against Staphylococcus aureus [12]; 32 µg/mL against Pseudomonas aeruginosa [13]. Also, the MIC in the test with Escherichia coli [14] is at most 0.06 µg/mL; in test [15], above 128 µg/mL. Besides, the Relative hydrolysis in test [8] came out at 10.
In the case of `C[C@@H](O)[C@H]1C(=O)N2C(C(=O)[O-])=C(SC3COC(CN)C3)[C@H](C)[C@H]12.[Na+]` (stereo not given in full), the MIC in test [1] was 1 µg/mL; in test [2], 0.25 µg/mL; in test [3] it was 2 µg/mL; with Staphylococcus aureus [16] it was at most 0.06 µg/mL; in the test on Escherichia coli [4], at most 0.06 µg/mL; in [5], 0.06 µg/mL. The MIC against Escherichia coli [6] is at most 0.06 µg/mL; in test [10], at most 0.06 µg/mL; in the test with Pseudomonas aeruginosa [11], 8 µg/mL; with Staphylococcus aureus [12] it was 8 µg/mL; in test [18], above 128 µg/mL; with Pseudomonas aeruginosa [13] it was 4 µg/mL. Further, the MIC with Escherichia coli [14] is 0.06 µg/mL; in [15], above 128 µg/mL. For the same compound, the Relative hydrolysis in [17] amounted to 19.
Regarding `C[C@@H](O)[C@H]1C(=O)N2C(C(=O)O)=C(SCCNC=N)C[C@H]12` [IMIPENEM ANHYDROUS], the MIC was 0.25 µg/mL (≈ 0.835 µM) in test [1]; 1 µg/mL (≈ 3.34 µM) in [2]; 1 µg/mL (≈ 3.34 µM) in test [3]; 0.12 µg/mL (≈ 0.401 µM) with Escherichia coli [4]; 0.25 µg/mL (≈ 0.835 µM) in [5]; 0.12 µg/mL (≈ 0.401 µM) against Escherichia coli [6]. Further, the MIC in test [7] was above 128 µg/mL; in the test with Staphylococcus aureus [9] it was at most 0.06 µg/mL; in test [10] it was at most 0.06 µg/mL; in the test with Pseudomonas aeruginosa [11], 16 µg/mL (≈ 53.4 µM); in the test on Staphylococcus aureus [12] it was 1 µg/mL (≈ 3.34 µM); with Pseudomonas aeruginosa [13], 1 µg/mL (≈ 3.34 µM). Also, the values for the MIC (in the test on Escherichia coli [14]; in test [15]) were at most 0.06 µg/mL and 64 µg/mL (≈ 214 µM), respectively. This compound also yielded a Relative hydrolysis in [17] of 100.
Turning to `CNC[C@H]1OCC[C@H]1SC1=C(C(=O)[O-])N2C(=O)[C@H]([C@@H](C)O)[C@H]2[C@H]1C.[Na+]`, the MIC was 4 µg/mL in [1]; 0.5 µg/mL in [2]; 0.5 µg/mL in test [3]; at most 0.06 µg/mL in the test on Escherichia coli [4]; 0.12 µg/mL in test [5]; at most 0.06 µg/mL in the test on Escherichia coli [6]. For the same compound, the minimum inhibitory concentration (MIC) in test [7] is above 128 µg/mL; in the test with Staphylococcus aureus [9] it was at most 0.06 µg/mL; in test [10], at most 0.06 µg/mL; with Pseudomonas aeruginosa [11] it was 32 µg/mL; against Staphylococcus aureus [12], 1 µg/mL; with Pseudomonas aeruginosa [13], 8 µg/mL. Also, the MIC was at most 0.06 µg/mL against Escherichia coli [14] and above 64 µg/mL in [15]. This compound also yielded a Relative hydrolysis in [17] of 10.
With `CCN1CCN(C(=O)NC[C@H]2OCC[C@H]2SC2=C(C(=O)[O-])N3C(=O)[C@H]([C@@H](C)O)[C@H]3[C@H]2C)C(=O)C1=O.[Na+]`, the MIC in test [1] was 2 µg/mL; in [2], 0.5 µg/mL; in the test with Escherichia coli [4] it was at most 0.06 µg/mL; in test [5], 0.12 µg/mL; against Enterococcus faecium, above 128 µg/mL; in the test on Escherichia coli [6], at most 0.06 µg/mL. Also, the minimum inhibitory concentration (MIC) in test [7] is above 128 µg/mL; with Staphylococcus aureus [19], 8 µg/mL; against Staphylococcus aureus [9] it was at most 0.06 µg/mL; in test [10], at most 0.06 µg/mL; against Pseudomonas aeruginosa [11], 32 µg/mL; against Enterococcus faecalis, 4 µg/mL. Further, the MIC in the test on Pseudomonas aeruginosa [13] was 16 µg/mL; against Escherichia coli [14] it was at most 0.06 µg/mL. In addition, in test [17], the Relative hydrolysis stood at 9.
